These results are taken from patent US20190307754A1, “PDE9 INHIBITORS FOR TREATMENT OF PERIPHERAL DISEASES” (IMARA, INC., priority 2016, published 2019).

Where two headings read alike, the source gives them in different places. Some results are limits rather than exact numbers.

One may read the half-life as how long it takes for the measured level to halve.

Data set [1] can be described thus: Plasma protein binding, rat. The note with it: read-out: mean plasma fraction bound (converted). It is filed as in vitro ADME.
The nature of data set [2]: Pharmacokinetics in mice and rats (statements for both species). Format: in vivo. The note with it: for half-life: read-out: elimination half-life (converted). Here is the method: The PK evaluation of Compound P3.1 included Absorption, Distribution, Metabolism, and Excretion (ADME) studies, as well as assessment for CYP enzyme inhibition.
Blood samples were taken at 2 minutes (IV only), then 8, 15, 30 minutes, and 1, 2, 4, 8, and 24 hours after dosing and analyzed for key PK parameters. In the rats, brain samples were taken at 24 hours and analyzed for Compound P3.1. To evaluate the penetration of Compound P3.1 across the blood-brain barrier (BBB), 10 additional rats received IV Compound P3.1 3 mg/kg and plasma and brain concentrations of Compound P3.1 were determined from 2 animals at 15 minutes, 30 minutes and 1, 2, and 4 hours after dosing.

Data set [3] is described as follows: Stability study in purified water. It is filed as physicochemical. Conditions: approximately 40 mg/mL in purified water, refrigerated and ambient, 8 days. Here is the method:
In another stability study, Compound P3.1 was dissolved at approximately 40 mg/mL of purified water, and evaluated for purity over a period of 8 days. Samples were stored at both refrigerated and ambient conditions, and tested at T=0, Day 2, and Day 8.

A further data set concerns C57Bl/6J mice. Nature of the data set: Locomotor activity and contextual fear conditioning in C57Bl/6J mice. Format: in vivo. The note with it: 10 or 30 mg/kg/day, gavage, 5 days. Here is the method:
The exposure of both compounds was also evaluated in the plasma, brain, and eye. […] During the treatment period all animals were assessed for contextual fear conditioning and a subset of 7 animals per group was evaluated for locomotor activity. On Day 5, plasma, brain, and eye tissue were collected 30 minutes after dosing from 3 animals per treated group to measure concentrations of test item.

For `C[C@@H]1CN(Cc2ncccn2)C[C@H]1c1cn2c(C3CCOCC3)ncc2c(=O)[nH]1` (single isomer, unassigned) [Compound P3.1], the fraction unbound in data set [1] was 0.748. Moreover, the “plasma concentrations by 24 hours” value in data set [2] (10 mg/kg oral, both species) is “below the lower limit of quantification (LLOQ)”. The Tmax in data set [2] (CD1 (mouse), Sprague Dawley (rat), mouse, rat, plasma, 10 mg/kg, oral, mice and rats, read-out: time of maximum concentration (Tmax)) was 0.5 to 1 h. Also, the half-life in data set [2] (CD1 (mouse), Sprague Dawley (rat), mouse, rat, plasma, oral, intravenous, mice and rats) was under 3 h; in data set [2] (CD1 (mouse), Sprague Dawley (rat), mouse, rat, plasma, other: oral and intravenous (both routes), mice and rats), about 3 h. Moreover, the “plasma concentration by 24 hours” value in data set [2] (IV, both species) is “below the LLOQ”. In addition, the “stability: purity and appearance of solution” value in data set [3] is reported as “No significant change to the purity of the compound or appearance of the solution”. In the data set on C57Bl/6J mice, the “locomotor activity or memory” value is “no effect”.
